What all share (format): cell-based, human
The subject of one assay is PC-3 cells. Description: WST-1 cell proliferation assay, PC-3. The following applies: for IC50: Homo sapiens, PC-3, 72 h, WST-1, three days of exposure, mean ± SD, n = 3; for IC50 (Silibinin)/IC50(Derivative) PC-3: fold potency relative to silibinin. As for the experimental part: (§1) The in vitro antiproliferative activities of six 7-O-substituted and 26 3-O-substituted silybin derivatives were evaluated using the WST-1 cell proliferation assay, according to the procedure as described in the Experimental Section in both androgen-sensitive (LNCaP) and androgen-insensitive (PC-3 and DU145) human prostate cancer cell lines. Silibinin and docetaxel were used as a positive control for comparison in the parallel experiments and the IC50 values calculated from the dose-response curves are summarized in Table 1. […] A three-carbon linker in 11 and 29, as well as a five-carbon linker in 31, 37 and 40, are beneficial to the potency.
(§2) All cell lines were initially purchased from American Type Culture Collection (ATCC^TM) (Manassas, VA, USA). The PC-3 and LNCaP prostate cancer cell lines were routinely cultured in RPIM-1640 medium supplemented with 10% FBS and 1% penicillin/streptomycin. The DU145 prostate cancer cells were routinely cultured in Eagle’s Minimum Essential Medium (EMEM) supplemented with 10% FBS and 1% penicillin/streptomycin. Cultures were maintained in a high humidity environment supplemented with 5% carbon dioxide at a temperature of 37 °C.
(§3) PC-3, DU145, or LNCaP cells were plated in 96-well plates at a density of 3,200 per well in 200 µL of culture medium. The cells were then separately treated with silibinin, or synthesized silibinin derivatives, at five different doses for three days, while equal treatment volumes of DMSO (0.25%) were used as the vehicle control. The cells were cultured in a CO2 incubator at 37 °C for three days. A total of 10 µL of the premixed WST-1 cell proliferation reagent (Clontech) was added to each well. After mixing gently for one min on an orbital shaker, the cells were incubated for an additional 3 h at 37 °C. To ensure a homogeneous distribution of color, it is important to mix gently on an orbital shaker for one min. The absorbance of each well was measured using a microplate reader (Synergy HT, BioTek, Winooski, VT, USA) at a wavelength of 430 nm. […] For calculating the IC50 values, a linear proliferative inhibition was made based on at least five dosages for each compound.
A general note: Tetrazolium assays rely on reduction of a dye to a coloured formazan, in cell work by metabolically active cells.

A further assay has as its system DU145 cells. Briefly: WST-1 cell proliferation assay, DU145. Conditions: for IC50: Homo sapiens, DU-145, 72 h, WST-1, three days of exposure, mean ± SD, n = 3; for IC50 (Silibinin)/IC50(Derivative) DU145: fold potency relative to silibinin. As for the experimental part:
as §1, §2, §3

The next assay has as its system LNCaP cells. Description: WST-1 cell proliferation assay, LNCaP. Conditions: for IC50: Homo sapiens, LNCaP, 72 h, WST-1, three days of exposure, mean ± SD, n = 3; for IC50 (Silibinin)/IC50(Derivative) LNCaP: fold potency relative to silibinin. The method, then: as §1, §2, §3

For orientation: IC50 means the point on the concentration scale where inhibition reaches its midpoint.

As to `COc1cc(OC)c2c(=O)c(OCCCN(C)C)c(-c3ccc4c(c3)OC(c3ccc(OC)c(OC)c3)C(CO)O4)oc2c1` (stereo not drawn) [Compound 20, 3-O-(N,N-Dimethylamino)propyl-5,7,20-O-trimethyl-2,3-dehydrosilybin], in the assay with PC-3 cells, the IC50 stood at 9.09 ± 1.48 µM and the “IC50 (Silibinin)/IC50(Derivative) PC-3” value was 8. Also, in the assay on DU145 cells, the IC50 is 32.7 ± 5.32 µM and the “IC50 (Silibinin)/IC50(Derivative) DU145” value is given as 3. In addition, in the assay on LNCaP cells, the IC50 came to 20.7 ± 5.34 µM and the “IC50 (Silibinin)/IC50(Derivative) LNCaP” value was determined as 2.
Regarding `COc1ccc(C2Oc3cc(-c4oc5cc(OCCCN6CCCC6)cc(OC)c5c(=O)c4OC)ccc3OC2CO)cc1OC` (stereo not drawn) [Compound 12], in the assay with PC-3 cells, the IC50 was determined as 25.1 ± 1 µM and the “IC50 (Silibinin)/IC50(Derivative) PC-3” value is 3. Moreover, in the assay with DU145 cells, the IC50 came to 19.6 ± 0.47 µM and the “IC50 (Silibinin)/IC50(Derivative) DU145” value was 5. For the same molecule, in the assay with LNCaP cells, the IC50 stood at 11 ± 0.99 µM and the “IC50 (Silibinin)/IC50(Derivative) LNCaP” value was 4.
As to `COc1cc(OC)c2c(=O)c(OCCCCCN3CCCC3)c(-c3ccc4c(c3)OC(c3ccc(OC)c(OC)c3)C(CO)O4)oc2c1` (stereo not drawn) [Compound 34], in the assay with PC-3 cells, the IC50 is 2.95 ± 0.76 µM and the “IC50 (Silibinin)/IC50(Derivative) PC-3” value is 25. Besides, in the assay on DU145 cells, the IC50 stood at 5.9 ± 1.3 µM and the “IC50 (Silibinin)/IC50(Derivative) DU145” value amounted to 16. Further, in the assay on LNCaP cells, the IC50 was 3.92 ± 1.67 µM and the “IC50 (Silibinin)/IC50(Derivative) LNCaP” value is recorded as 11.
In the case of `CCCN(CCC)CCCCCOc1c(-c2ccc3c(c2)OC(c2ccc(OC)c(OC)c2)C(CO)O3)oc2cc(OC)cc(OC)c2c1=O` (stereo not drawn) [Compound 28], in the assay with PC-3 cells, the IC50 is 3.3 ± 0.86 µM and the “IC50 (Silibinin)/IC50(Derivative) PC-3” value was 22. For the same molecule, in the assay on DU145 cells, the half-maximal inhibitory concentration (IC50) came out at 5.78 ± 1.36 µM and the “IC50 (Silibinin)/IC50(Derivative) DU145” value turned out to be 16. In addition, in the assay on LNCaP cells, the IC50 is 2.7 ± 0.47 µM and the “IC50 (Silibinin)/IC50(Derivative) LNCaP” value was 16.
Turning to `COc1ccc(C2Oc3cc(-c4oc5cc(OCCCN6CCN(C)CC6)cc(OC)c5c(=O)c4OC)ccc3OC2CO)cc1OC` (stereo not drawn) [Compound 14], in the assay with PC-3 cells, the IC50 turned out to be 25.7 ± 3.39 µM and the “IC50 (Silibinin)/IC50(Derivative) PC-3” value worked out at 3. Also, in the assay with DU145 cells, the half-inhibitory concentration (IC50) stood at 19.4 ± 0.88 µM and the “IC50 (Silibinin)/IC50(Derivative) DU145” value was 5. Also, in the assay on LNCaP cells, the IC50 was determined as 16.4 ± 3.47 µM and the “IC50 (Silibinin)/IC50(Derivative) LNCaP” value came to 3.
For `CCCN(CCC)CCCOc1c(-c2ccc3c(c2)OC(c2ccc(OC)c(OC)c2)C(CO)O3)oc2cc(OC)cc(OC)c2c1=O` (stereo not drawn) [Compound 26], in the assay with PC-3 cells, the IC50 came out at 2.03 ± 0.69 µM and the “IC50 (Silibinin)/IC50(Derivative) PC-3” value is 36. In the assay on DU145 cells, the IC50 was 8.39 ± 1.38 µM and the “IC50 (Silibinin)/IC50(Derivative) DU145” value was determined as 11. In the assay with LNCaP cells, the IC50 amounted to 3.89 ± 0.54 µM and the “IC50 (Silibinin)/IC50(Derivative) LNCaP” value is 11.
With `CCN(CC)CCCCOc1c(-c2ccc3c(c2)OC(c2ccc(OC)c(OC)c2)C(CO)O3)oc2cc(OC)cc(OC)c2c1=O` (stereo not drawn) [Compound 24], in the assay on PC-3 cells, the IC50 was found to be 5.76 ± 1.36 µM and the “IC50 (Silibinin)/IC50(Derivative) PC-3” value was found to be 11. Besides, in the assay with DU145 cells, the IC50 was 8.18 ± 0.42 µM and the “IC50 (Silibinin)/IC50(Derivative) DU145” value is given as 8. Moreover, in the assay with LNCaP cells, the IC50 stood at 5.19 ± 2.08 µM and the “IC50 (Silibinin)/IC50(Derivative) LNCaP” value came to 13.
As for `COc1cc(OC)c2c(=O)c(OCCCCN3CCCCC3)c(-c3ccc4c(c3)OC(c3ccc(OC)c(OC)c3)C(CO)O4)oc2c1` (stereo not drawn) [Compound 36], in the assay with PC-3 cells, the IC50 was found to be 24.1 ± 10.6 µM and the “IC50 (Silibinin)/IC50(Derivative) PC-3” value was determined as 3. Moreover, in the assay on DU145 cells, the IC50 was found to be 67 ± 13.7 µM and the “IC50 (Silibinin)/IC50(Derivative) DU145” value was found to be 1. Besides, in the assay on LNCaP cells, the IC50 is 27.3 ± 5.42 µM and the “IC50 (Silibinin)/IC50(Derivative) LNCaP” value is 2.
Take `COc1cc(OC)c2c(=O)c(OCCCN3CCN(C)CC3)c(-c3ccc4c(c3)OC(c3ccc(OC)c(OC)c3)C(CO)O4)oc2c1` (stereo not drawn) [Compound 44]: in the assay on PC-3 cells, the half-inhibitory concentration (IC50) amounted to 8.45 ± 2.89 µM and the “IC50 (Silibinin)/IC50(Derivative) PC-3” value is on record as 9. In addition, in the assay with DU145 cells, the IC50 was 18.6 ± 7.67 µM and the “IC50 (Silibinin)/IC50(Derivative) DU145” value is 5. Also, in the assay with LNCaP cells, the concentration for half-maximal inhibition (IC50) amounted to 12.8 ± 7.8 µM and the “IC50 (Silibinin)/IC50(Derivative) LNCaP” value was found to be 3.
On to `COc1cc(OC)c2c(=O)c(OCCCN3CCOCC3)c(-c3ccc4c(c3)OC(c3ccc(OC)c(OC)c3)C(CO)O4)oc2c1` (stereo not drawn) [Compound 38], for which, in the assay on PC-3 cells, the IC50 is 2.94 ± 0.13 µM and the “IC50 (Silibinin)/IC50(Derivative) PC-3” value was found to be 25. In addition, in the assay with DU145 cells, the IC50 was determined as 10.6 ± 0.63 µM and the “IC50 (Silibinin)/IC50(Derivative) DU145” value is reported as 9. Moreover, in the assay on LNCaP cells, the IC50 turned out to be 1.74 ± 0.97 µM and the “IC50 (Silibinin)/IC50(Derivative) LNCaP” value was 25.

(Values after paper PMC6320956, “O-Aminoalkyl-O-Trimethyl-2,3-Dehydrosilybins: Synthesis and In Vitro Effects Towards Prostate Cancer Cells” (Molecules, 2018).)
